Assay results: patent US4351948A, “Imidazole hydrazone derivatives” (priority 1980, dated 1982)
Converted amounts (≈) assume the structure as drawn. Counter-ions that a name gives are not always drawn. Like-named read-outs stand apart in the source and are kept apart here.

Key:
[1] = system: C. perfringens (ATCC 13124); assay: microbe, parasite or virus in culture; format: cell-based; details: Clostridium perfringens, ATCC13124, 24 h
C. sporogenes ATCC 19404 = assay: Antianaerobic activity, MIC by standard broth dilution method (Table II); format: cell-based; details: Clostridium sporogenes, ATCC19404, 24 h, read-out: Minimal Inhibitory Concentration (MIC)
Protocol: (§1) The activity of the compounds identified in the Table II below was tested for antianaerobic activity against one strain of Bacteroides fragilis, one strain of Bacteroides uniformis, one strain of Clostridium sporogenes and one strain of Trichomonas vaginalis as the test organism. The methods used involved determining the minimum inhibitory concentration by the standard broth dilution method. The values for metronidazole (2-methyl-5-nitro-1H-imidazole-1-ethanol) are given above for reference purposes. For convenience the compounds are referred to by an internal reference number (an HC number) and this is correlated with the number of the Example wherein its production is described.

candida albicans = assay: Oral treatment: recovery of viable candida albicans from the kidneys of infected mice; format: in vivo
Text: Effect of oral treatment with HC274, HC316, HC390, HC415 and Ketoconazole on the recovery of viable candida albicans from the kidneys of infected mice.

T. vaginalis ATCC 30001 = assay: Antianaerobic activity, MIC by standard broth dilution method (Table II); format: cell-based; details: Trichomonas vaginalis, ATCC30001, 24 h, read-out: Minimal Inhibitory Concentration (MIC)
Protocol: as §1, with “The values for metronidazole (2-methyl-5-nitro-1H-imidazole-1-ethanol) are given above for reference purposes.” left out

B. uniformis ATCC 8492 = assay: as above; format: cell-based; details: Bacteroides uniformis, ATCC8492, 24 h, read-out: Minimal Inhibitory Concentration (MIC)
Protocol: as §1, with “The values for metronidazole (2-methyl-5-nitro-1H-imidazole-1-ethanol) are given above for reference purposes.” left out

B. fragilis ATCC 23745 = assay: as above; format: cell-based; details: Bacteroides fragilis, ATCC23745, 24 h, read-out: Minimal Inhibitory Concentration (MIC)
Protocol: as §1, with “The values for metronidazole (2-methyl-5-nitro-1H-imidazole-1-ethanol) are given above for reference purposes.” left out

in vivo = details: male mice, 7 day
[2] = system: Desulfovibrio desulfuricans API-CORE; assay: Minimal inhibitory concentration against anaerobic bacteria; details: 24 h
[3] = system: Desulfovibrio desulfuricans API-SW2; assay: as above; details: for Minimal Inhibitory Concentration: 24 hours at 37° C.
[4] = system: Clostridium sporogenes ATCC 19404; assay: as above; format: cell-based; details: ATCC19404, 24 h
[5] = system: Desulfovibrio desulfuricans API-BREWER; assay: as above; details: 24 h
[6] = system: Bacteroides uniformis ATCC 8492; assay: as above; details: ATCC8492, 24 h
[7] = system: Bacteroides fragilis ATCC 23745; assay: as above; details: ATCC23745, 24 h
[8] = read-out: Minimal Inhibitory Concentration, Test 1, 24 hours at 37° C.
[9] = read-out: Minimal Inhibitory Concentration, Test 2, 24 hours at 37° C.
[10] = read-out: Minimal Inhibitory Concentration, Test 3, 24 hours at 37° C.

`Cl.Clc1ccc(NN=C(Cn2ccnc2)c2ccccc2Cl)c(Cl)c1` [HC316, 1-(2-Chlorophenyl)-2-(1H-imidazol-1-yl)ethanone, 2,4-dichlorophenylhydrazone, hydrochloride] showed an MIC [1] of 0.8 mg/L, an MIC (C. sporogenes ATCC 19404; Test 1) of 1 mg/L and an MIC (C. sporogenes ATCC 19404; Test 2) of 2.5 mg/L. The MIC (C. sporogenes ATCC 19404; Test 3) was 2.5 mg/L, the “Recovery of C.albicans (as percentage of control)” value (candida albicans; 5 mg/kg) was 56.2 percentage of control and the “Recovery of C.albicans (as percentage of control)” value (candida albicans; 20 mg/kg) was 46.5 percentage of control. It also gave an MIC (T. vaginalis ATCC 30001; Test 1) of 50 mg/L, an MIC (T. vaginalis ATCC 30001; Test 2) of 50 mg/L and an MIC (T. vaginalis ATCC 30001; Test 3) of 50 mg/L. The MIC (B. uniformis ATCC 8492; Test 1) was 2.5 mg/L, the MIC (B. uniformis ATCC 8492; Test 2) was 2.5 mg/L and the MIC (B. uniformis ATCC 8492; Test 3) was 2.5 mg/L. The MIC (B. fragilis ATCC 23745; Test 1) was 2.5 mg/L, the MIC (B. fragilis ATCC 23745; Test 2) was 2.5 mg/L and the MIC (B. fragilis ATCC 23745; Test 3) was 2.5 mg/L.
In the case of `Clc1ccc(/C(Cn2ccnc2)=N/Nc2c(Cl)cccc2Cl)s1` [HC390, (E)-1-(5-chlorothienyl-2-yl)-2-(1H-imidazol-1-yl)ethanone, 2,6-dichlorophenylhydrazone, hydrochloride], the MIC [1] is reported as 3.1 mg/L, the MIC (C. sporogenes ATCC 19404; Test 1) is reported as 2.5 mg/L and the MIC (C. sporogenes ATCC 19404; Test 2) is reported as 5 mg/L. The MIC (C. sporogenes ATCC 19404; Test 3) was 7.5 mg/L, the “Recovery of C.albicans (as percentage of control)” value (candida albicans; 5 mg/kg) was 57.3 percentage of control and the “Recovery of C.albicans (as percentage of control)” value (candida albicans; 20 mg/kg) was 41.1 percentage of control. For the same molecule, the MIC (T. vaginalis ATCC 30001; Test 1) was greater than 50 mg/L, the MIC (T. vaginalis ATCC 30001; Test 2) was greater than 50 mg/L and the MIC (T. vaginalis ATCC 30001; Test 3) was greater than 50 mg/L. For the same molecule, the MIC (B. uniformis ATCC 8492; Test 1) was 2.5 mg/L, the MIC (B. uniformis ATCC 8492; Test 2) was 2.5 mg/L and the MIC (B. uniformis ATCC 8492; Test 3) was 2.5 mg/L. For the same molecule, the MIC (B. fragilis ATCC 23745; Test 1) was 5 mg/L, the MIC (B. fragilis ATCC 23745; Test 2) was 2.5 mg/L and the MIC (B. fragilis ATCC 23745; Test 3) was 2.5 mg/L. For the same molecule, the LD50 at 168 h (in vivo; mouse, in vivo, ip, read-out: LD50) was 610 mg/kg and the LD12.5 (in vivo; p.o.) was greater than 1500 mg/kg.
Molecule `Cc1ncc([N+](=O)[O-])n1CCO` [Metronidazole, 2-methyl-5-nitro-1H-imidazole-1-ethanol, reference compound] has an MIC [1] of 0.3 mg/L (≈ 1.75 µM), an MIC [2, 8] of 0.5 mg/L (≈ 2.92 µM) and an MIC [2, 9] of 0.25 mg/L (≈ 1.46 µM). The MIC [2, 10] was 0.25 mg/L (≈ 1.46 µM), the MIC ([3]; Desulfovibrio desulfuricans, APISW2, 24 h, read-out: Minimal Inhibitory Concentration) was 0.25 mg/L (≈ 1.46 µM) and the “Minimal Inhibitory Concentration” value ([3]; Test 2) was 0.25 mg/L. For the same molecule, the “Minimal Inhibitory Concentration” value ([3]; Test 3) was 0.25 mg/L, the MIC ([4]; Test 1, 24 hours at 37° C.) was 0.5 mg/L (≈ 2.92 µM) and the MIC ([4]; Test 2, 24 hours at 37° C.) was 0.25 mg/L (≈ 1.46 µM). The MIC ([4]; Test 3, 24 hours at 37° C.) was 0.75 mg/L (≈ 4.38 µM), the MIC [5, 8] was 0.5 mg/L (≈ 2.92 µM) and the MIC [5, 9] was 0.5 mg/L (≈ 2.92 µM). The MIC [5, 10] was 0.5 mg/L (≈ 2.92 µM), the MIC [6, 8] was 0.5 mg/L (≈ 2.92 µM) and the MIC [6, 9] was 0.25 mg/L (≈ 1.46 µM). It also gave an MIC [6, 10] of 0.25 mg/L (≈ 1.46 µM), an MIC [7, 8] of 0.75 mg/L (≈ 4.38 µM) and an MIC [7, 9] of 0.75 mg/L (≈ 4.38 µM). For the same molecule, the MIC [7, 10] was 0.5 mg/L (≈ 2.92 µM).
